Paper PMC10060354, “Discovery of a small molecule ligand of FRS2 that inhibits invasion and tumor growth” (Cellular Oncology, 2022)
Read-outs that look alike come from different tables or passages of the source.

Tests used:
[1] = Microsomal metabolic stability; assay type: in vitro ADME; settings: human, pooled liver microsomes
Procedure: Pooled liver microsomes were purchased from Xenotech (H0500) and were stored according to manufacturer’s instructions prior to use. […] A minus co-factor control incubation was included for each compound tested where 0.1 M phosphate buffer pH 7.4 was added instead of NADPH. Two control compounds were included with each species. All incubations were performed singularly for each shortlisted hit. Each compound was incubated for 0, 5, 15, 30 and 45 min. The minus co-factor was incubated for 45 min only. The reactions were stopped by transferring incubate into acetonitrile at the appropriate time points in a 1:3 ratio. The termination plates were centrifuged at 3000 rpm for 20 min at 4 °C to precipitate the protein. Following protein precipitation, the supernatant were combined in cassette of up to 4 compounds, internal standard for MS analysis was added and samples were analyzed using LC–MS/MS. From a plot of In peak area ratio (compound peak area/internal standard peak area) against time, the gradient of the lines were determined. Subsequently, half-life and intrinsic clearance were calculated using the following equations. Eliminationrateconstant(k)=(-gradient)Half-life(t1/2)(min)=0.693/kIntrinsicclearance(CLint)(μl/min/mgprotein)=Vx0.693/t1/2 where V = Incubation volume (µl) / Microsomal protein (mg)

[2] = Semi-thermodynamic solubility; assay type: physicochemical; settings: for solubility: Room Temp, Overnight, LC-MSMS
Procedure: In vitro ADME-T assays were performed by Cyprotex (Cyprotex Discovery, Cheshire, UK). […] The solution was agitated at ambient temperature overnight. The solutions were then centrifuged for 30 min at 3000 rpm at RT. The supernatant was removed and centrifuged for a further 30 min under the same conditions. An aliquot of the resulting supernatant was diluted in 50% methanol in water (containing an internal standard for MS analysis) prior to analysis by LC–MS/MS. […] These stocks were diluted in 50% methanol in water (containing an internal standard for MS analysis) prior to analysis by LC–MS/MS. The solubility of the shortlisted hits was calculated from a linear or quadratic fit of the standard curve.

DAOY cells = assay: Spheroid invasion assay (SIA), bFGF-induced collagen I invasion; assay type: cell-based, human; settings: for EC50: DAOY cells, n = 3 technical replicas, read-out: EC50 for the inhibition of bFGF-induced collagen I invasion
Procedure: 1000—2500 cells/well in 100 μl were seeded in 96 well Corning® Spheroid microplate (CLS4520, Sigma-Aldrich) or in cell-repellent 96 well microplate (650,790, Greiner Bio-one). SIA and analysis was performed as described before. In brief: After spheroid formation (24 – 72 h after seeding), 70 µl medium was removed and replaced with the collagen mixture (2.5 mg/ml Pure Col Collagen I (Advanced Biomatrix)), DMEM 1x (from 10 × stock, Sigma, D2429) and 0.4% Sodium bicarbonate (Sigma, S8761)), resulting in a final collagen concentration of 1.75 mg/ml. Embedded spheroids were stimulated with bFGF (100 ng/ml if not otherwise stated), HGF (30 ng /ml) or EGF (20 ng/ml) and distance of invaded cells quantified 24 – 48 h after embedding. Compounds and BGJ398 were added in Dimethylsulfoxid (DMSO) and corresponding DMSO concentrations were used in control samples.

[3] = tested on: HepG2 human hepatocellular carcinoma cells; assay: Cell viability (cytotoxicity, MTT) using HepG2; assay type: cell-based
Procedure: (§1) HepG2 human hepatocellular carcinoma cells were plated on 96-well tissue culture polystyrene plates for 24 h prior to dosing of the cells. The shortlisted hits were diluted in DMSO and serial dilutions are made 1% DMSO in growth media. Compounds at 8 concentrations in triplicate was then incubated for 72 h. Appropriate blanks and controls were run alongside the assay. One h prior to the end of the incubation period, the cells were loaded with MTT [yellow; 3-(4,5-dimethyl-2-thiazolyl)-2,5-diphenyl-2H-tetrazolium bromide], the plates were dried and re-solubilized using DMSO. The plates were then scanned at 570 nm using a plate reader.
(§2) The minimum effective concentration was determined from the lowest concentration whose mean value exceeds the significance level, provided either a clear dose–response relationship was observed, or at least two consecutive concentration points were above the significance level.

[4] = Cell viability (cytotoxicity, MTT) using HepG2; assay type: cell-based, human; settings: human, HepG2 cells, 72 h, summary sheet, read-out: MTT (AC50) Conc at which 50% of maximum efficacy is reached
Procedure: as §1, §2

Caco-2 cells = assay: CaCo-2 permeability (bi-directional); settings: Direction A2B
Procedure: (§3) Caco-2 cells obtained from the ATCC were used between passage numbers 40—60. Cells were seeded onto Millipore Multiscreen Transwell plates at 1 × 10^5 cells/cm^2. The cells were cultured in DMEM and media was changed every two or three days. On day 20, the permeability study was performed. […] Cells were then incubated with HBSS at the desired pH in both apical and basolateral compartments for 40 min to stabilize physiological parameters.
(§4) The fluorescent integrity marker lucifer yellow was also included in the dosing solution. Analytical standards were prepared from test compound DMSO dilutions and transferred to buffer, maintaining a 1% v/v DMSO concentration.
(§5) For assessment of A-B permeability, HBSS was removed from the apical compartment and replaced with test compound dosing solution. The apical compartment insert was then placed into a companion plate containing fresh buffer (containing 1% v/v DMSO). For assessment of B-A permeability, HBSS was removed from the companion plate and replaced with test compound dosing solution. Fresh buffer (containing 1% v/v DMSO) was added to the apical compartment insert, which was then placed into the companion plate.
(§6) Compound permeability was assessed in duplicate. Compounds of known permeability characteristics were run as controls on each assay plate.
(§7) Test and control compounds were quantified by LC–MS/MS cassette analysis using a 7-point calibration with appropriate dilution of the samples. The starting concentration (C0) was determined from the dosing solution and the experimental recovery calculated from C0 and both apical and basolateral compartment concentrations. The integrity of the monolayer throughout the experiment was checked by monitoring lucifer yellow permeation using fluorimetric analysis.
(§8) The permeability coefficient (Papp) for each compound was calculated from the following equation: Papp=dQ/dtC0×A where dQ/dt was the rate of permeation of the drug across the cells, C0 was the donor compartment concentration at time zero and A was the area of the cell monolayer. C0 was obtained from analysis of the dosing solution.
(§9) Efflux ratio (ER) was calculated from mean A-B and B-A data. This was derived from: ER=Papp(B-A)Papp(A-B)

[5] = CaCo-2 permeability (bi-directional); settings: human
Procedure: as §3, §4, §5, §6, §7, §8, §9

ERK (pT202/Y204) = assay: Immunoblotting, ERK phosphorylation; assay type: cell-based, human; settings: DAOY, SW780, M059K, SKOV3, AGS, DMS114 and RT-112 cells; 10 µM compound or 1 µM BGJ398
Procedure: (§10) Cells were serum starved o.n. and 10 µM compound or 1 µM (BGJ398) were added 3 h before stimulation with 100 ng/ml bFGF for 15 min. Cells were lysed in RIPA buffer containing protease inhibitor cocktail and lysates resolved by SDS-PAGE. Membranes were probed with primary antibodies against phospho-FRS2, FRS2, phospho-ERK1/2, ERK1/2, pAKT, AKT and tubulin. Integrated density of immuno-reactive bands was quantified using Adobe Photoshop CS3. Integrated densities of phospho bands relative to non-phospho bands of same protein were calculated and plotted as fold-change relative to untreated control conditions. Compounds and BGJ398 were added in DMSO and corresponding DMSO concentrations were used in control samples.

DMS114 = assay: Boyden chamber transwell migration assay; assay type: cell-based, human; settings: 24 h
Procedure: Transwells with 5 μm pore size (83.3932.500; Sarstedt) were coated with 50 µl of 0.06 μg/μl Pure Col Collagen I (5005; Advanced BioMatrix) dissolved in 100% EtOH for a final concentration of 10 μg/cm^2. 10,000 – 15,000 cells were resuspended in serum-free medium or serum-free medium containing the appropriate treatment and seeded in the upper chamber of a 24 well plate containing the coated transwell. The lower chamber was filled with either serum-free medium or serum-free medium with bFGF (25 ng/ml). Transwell migration was allowed for 24 h (DMS114) or 48 h (HCT116) at 37 °C, 5% CO2. Inserts were washed twice with PBS and the remaining non-invading cells on the upper surface of the membrane were removed using a cotton swab. The cells were fixed in 4% paraformaldehyde (28908; Thermo Fisher Scientific) in PBS for 5 min at RT. Fixed cells were washed twice with PBS and stained with DAPI for 15 min at RT. Inserts were washed three times in PBS before images of DAPI-stained nuclei were acquired using a widefield Nikon Ti2 microscope at 40 × magnification. Nuclei were counted on the membrane areas using ImageJ software and plotted on Prism 9 software (GraphPad).

[6] = tested on: FRS2 (Y436) phosphorylation; assay: Immunoblotting, FRS2 phosphorylation; assay type: cell-based, human; settings: RT-112 cells
Procedure: as §10

pFRS2Y436 = assay: IHC of pFRS2Y436 in SKOV3 flank tumor samples; assay type: in vivo, mice; settings: SKOV3 model; end of treatment
Procedure: IHC of tumor sections was performed by Sophistolab (Muttenz, Switzerland) on a Lecia BondMax instrument using Refine HRP-Kits (Leica DS9800). All buffer-solutions were purchased from Lecia Microsystems Newcastle, Ltd and used according to the manufacturer’s guidelines. Paraffin-slides were de-waxed, pre-treated and incubated as follows: ER-solution 2 for 10 min at 95 °C, ER-solution 2 for 20 min at 100 °C and ER-solution 2 for 30 min at 100 °C. pFRS2; Rabbit anti-Phospho FRS2 (PhosphoY 436, Abcam Limited; ab193363), dilution 1:150; phospho-p44/42 MAPK (Erk1/2Thr202/Tyr204) Rabbit mAb (Cell Signaling Technology #4370), dilution 1:1600. The IHC images were captured digitally using a Nikon Epifluorescence Eclipse Ti2 equipped with a Nikon DS-Ri2 color and a Nikon DS-Qi2 monochrome camera.

human cancer cell lines = assay: CellTiter-Glo viability (2D culture or 3D spheroids), cell line panel; assay type: cell-based; settings: SW780, RT-112, M059K and SKOV3 cells; 2.7 to 20 µM; 48 h
Procedure: Cell viability was determined using CellTiter-Glo® 2D or 3D cell viability assays (#G9242, #G9682, Promega). 500 cells/25 µl were seeded in flat bottom (#781,091, Greiner bio-one) or U-low adhesion (#4516, Corning) 384-well plate, 24 h prior to treatment. Increasing concentrations of compounds are deposited on cells using a HP Digital Drug Dispenser with DMSO total volume normalization. After 48 h, the CellTiter-Glo® 2D or 3D reagent was added (volume/volume) following manufacturer’s instructions. Plates were incubated at RT (room temperature) under agitation for 30 min and luminescence representing the number of viable cells was quantified with a Cytation 3 imaging reader (BioTek®). Experiments were performed independently three times with three technical replicas each.

## Oc1cc(Cl)cc2c1NC(c1ccc(Cl)cc1)C1CC=CC21 (centres unmarked) [Compound 12]
[1]; pH 7.4, liver microsomes, read-out: t1/2
  half-life at 1 µM: 2.5 min
[1]; pH 7.4, read-out: Metabolic stability - Intrinsic clearance (CI)
  microsomal CLint at 1 µM: 555 µL/min/mg
[2]; PBS, aqueous buffer, thermodynamic from solid, read-out: Mean Solubility
  solubility: < 1 µM
[2]; PBS, aqueous buffer, thermodynamic from solid, read-out: Solubility Replicate 1
  solubility: < 1 µM
[2]; PBS, aqueous buffer, thermodynamic from solid, read-out: Solubility Replicate 3
  solubility: < 1 µM
[2]; PBS, aqueous buffer, thermodynamic from solid, read-out: Solubility Replicate 4
  solubility: < 1 µM
[2]; aqueous buffer, thermodynamic from solid, PBS, overnight, summary sheet
  solubility thermodynamic: < 1 µM
[2]; summary sheet
  Solubility (class in words): Very slightly
DAOY cells; DAOY, bFGF-induced, 1, 5 and 10 µM
  functional activity in SIA (result in words): reduced invasion comparable to the parent compound 7
[3]; 72h, 3 replicas, NR = No response (Summary sheet)
  MEC: 9.85 µM
[3]; 72 h, summary sheet
  MTT (MEC) Minimum effective concentration: 9.85 µM
[4]
  AC50 at 72 h: 17.5 µM
Caco-2 cells
  Comments: A2B permeation (result in words): Test compound not detectable in receiver compartments A2B. High C0 value A2B and B2A. Recovery low B2A. Possible solubility or binding issues. Accuracy of result questionable.
[5]; Caco-2, Mean Papp B-A, Caco-2, summary sheet
  Papp B→A at 120 min, 10 μM: 7.53 ×10⁻⁶ cm/s
[5]; Caco-2, pH 7.4, Mean % Recovery A2B, HBSS/HBSS, pH 7.4/7.4
  recovery at 120 min, 10 µM: 51.5%
[5]; Caco-2, pH 7.4, Mean % Recovery B2A, HBSS/HBSS, pH 7.4/7.4
  recovery at 120 min, 10 µM: 14.4%
[5]; Caco-2, pH 7.4, Mean Papp B2A, HBSS/HBSS, pH 7.4/7.4
  Papp B→A at 120 min, 10 μM: 7.53 ×10⁻⁶ cm/s
[5]; Caco-2, pH 7.4, Papp B2A Replicate 1, HBSS/HBSS, pH 7.4/7.4
  Papp B→A at 120 min, 10 μM: 6.28 ×10⁻⁶ cm/s
[5]; Caco-2, pH 7.4, Papp B2A Replicate 2, HBSS/HBSS, pH 7.4/7.4
  Papp B→A at 120 min, 10 μM: 8.78 ×10⁻⁶ cm/s

## CCN1CCN(c2ccc(Nc3cc(N(C)C(=O)Nc4c(Cl)c(OC)cc(OC)c4Cl)ncn3)cc2)CC1 [BGJ398, 3-(2,6-Dichloro-3,5-dimethoxy-phenyl)-1-{6-[4-(4-ethyl-piperazin-1-yl)-phenylamino]-pyrimidin-4-yl}-1-methyl-urea, reference compound]
ERK (pT202/Y204)
  basal and bFGF-induced phosphorylation of ERK (result in words): inhibited basal and bFGF-induced phosphorylation
DMS114
  concentration at which significant reduction of transwell migration was observed: 1 µM
DAOY cells
  EC50: 470 nM
DAOY cells; Homo sapiens, Daoy
  EC50: 468 nM
[6]
  basal and bFGF-induced phosphorylation of FRS2Y436 (result in words): reduced basal and bFGF-induced phosphorylation
pFRS2Y436
  pFRS2 Y436 in tumor tissues by IHC (result in words): No clear difference in pFRS2 Y436
Human cancer cell lines
  viability (result in words): reduced viability
